Results taken from patent US5608095A, “Alkyl-4-silyl-phenols and esters thereof as antiatherosclerotic agents” (Hoechst Marion Roussel, Inc., priority 1996, dated 1997).
Where two headings read alike, the source gives them in different places.

Legend:
[1] = Food consumption, body and liver weight in cholesterol-fed rabbits; type: in vivo, female New Zealand White rabbits; conditions: diet 0.4%, 7 days; for body wt., percent of control / lw/bw (liver weight/body weight), percent of control: rabbit
How it was run: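 Female New Zealand White rabbits fed 100 g/day of 0.2% cholesterol chow sprayed with compound (mostly 0.4%; some at 0.26% or 0.6%) from ethanol or diethyl ether:ethanol 3:2, for 7 days (14 days at 0.6%). Daily food intake, terminal body and liver weights recorded in grams.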

[2] = Clinical chemistries in serum of rats; type: in vivo, male Sprague-Dawley rats; conditions: for response vs control in vivo at 0.1 % / response vs control in vivo at 0.3 %: po, 96 h
Source text: (§1) A typical experiment consisted of 4-6 groups of rats (N=5 per group) with 1 group being a control which received no MDL compound and the other groups being treated with 0.3% MDL compound. Some of the compounds were either repeated at 0.3% or evaluated again at the lower dose of 0.1%. Male Sprague-Dawley rats, 50-100 g, (Harlan Laboratories, Indianapolis, Ind.) were housed in groups of 5, fed ad libitum water and Purina Rodent chow (#5002) with or without MDL compound as a dietary admixture for 4 days. Dietary admixtures (0.3%) were made by mixing 1.2 grams of an MDL compound with 400 grams of Purina rodent chow (#5002). The MDL compound was mixed with approximately 50 grams of food using a mortar and pestle. This was added to the remainder of the food and mixed for 3 hours on a rotary mixer. In the morning of day 5, non-fasted rats were anesthetized with carbon dioxide, and blood was collected by cardiac puncture. Rats were sacrificed by cervical dislocation. Body weights and liver weights were recorded in grams. Food consumption was recorded as grams.cndot.day^-1.cndot.rat^-1. Deaths were recorded as mortality. Aliquots of fresh serum were used for clinical chemistries, thiobarbituric acid reactive substances (TBARS) and conjugated diene measurements. Aliquots of serum (~0.5mL) and whole livers were frozen at -20° C. for compound and metabolite concentration determination at a later time.
Blood was allowed to clot at room temperature for 30 minutes. Serum was obtained after centrifugation for 10 min at 4° C. at 3000 rpm in a Beckman J-6M/E centrifuge with a JS-4.2 rotor. Fresh serum was analyzed by a COBAS MIRA S autoanalyzer (Roche Diagnostics) using Roche diagnostic reagents for the following clinical chemistry measurements: alkaline phosphatase (ALP, kit #44553), alanine transaminase (ALT, kit #42375), aspartate aminotransferase (AST, kit #42381), total cholesterol (CHOL, kit #44334), triglyceride (TG, kit #44120), and glucose (GLU, kit #44558). ALP, ALT, and AST were calculated as units/L. Cholesterol, triglycerides, and glucose were calculated as mg/dL.

[3] = test system: oxidation of lipids; assay: Conjugated diene determination, rat serum; type: in vivo, male Sprague-Dawley rats; conditions: pooled rat serum, diet 0.1%, 4 days, mean of 2 determinations
Source text: as §1
Conjugated diene lag phase is another indicator of the oxidation of lipids. Lipids exposed to Cu^++ form conjugated dienes that absorb ultraviolet light in the range of 230 to 235 nm. The lag phase of diene formation gives an indication of the amount of oxidation of the lipids. A lag phase longer than control samples indicate inhibition of the oxidation. Conjugated diene lay phase was determined using a Varian DMS200 spectrophotometer (fitted with a constant temperature, 5 cuvette sample changer) at 30° C. Twenty (20) μL of pooled serum were added to cuvettes containing 3.0 mL phosphate buffered saline, pH 7.5, and mixed. The absorbances of all cuvettes were measured, and the instrument baseline was set to zero using the lowest absorbing sample. Next, 100 μL of 1 mmol CuSO4 were added and immediately mixed. The absorbance of each cuvette was recorded at 2 min intervals for a period of 840 min. The data were captured and transferred to a Microsoft EXCEL® spreadsheet where the curves were smoothed and differentials obtained. Lag times were determined mathematically as minutes. Serum samples were pooled (N=5); data presented are the mean values of 2 determinations. Serum samples from treated rats were compared to serum samples from control rats that received no MDL compound.

[4] = HPLC quantitation of compound and metabolite concentration in rat serum and liver; type: in vivo, male Sprague-Dawley rats; conditions: 4 days; for concentration at 96 h: po
Source text: as §1
Serum and liver concentrations of parent compound and the metabolites, bisphenol and diphenoquinone, were determined by reverse phase HPLC using a Waters 990 Powerline system. Livers (1 gram samples) were homogenized with 5.0 mL PBS, pH 7.4, using a Polytron tissue homogenizer at setting 5 for 20-30 seconds. Serum or liver homogenates were extracted as follows: 100μL of either serum or homogenate were added to 2.0 mL diethyl ether:ethanol (3:1) while vortexing the tube. The sample tubes were capped and centrifuged for 10 min at 5° C. at 3500 rpm in a Beckman GPKR centrifuge with a GH 3.7 rotor. The supernatants were transferred to clean tubes and dried under N2. Samples were reconstituted with 200 μL of acetonitrile:hexane:0.1M ammonium acetate (90:6.5:3.5, by vol.). Then, 100 μL were injected onto a Waters Deltapak C18-300 Å column, and eluted with an 83% acetonitrile:17% water mobile phase at a flow rate of 1.5 mL/min. Absorbances at the wavelengths of 240, 254, and 420 nm were recorded. Compound concentrations were calculated from known quantities of authentic parent compounds after correction for recovery; the range of recovery from spiked samples was 40 to 100%. The lowest detectable limit for this class of compounds was ~0.5 μg/mL. […]. Concentrations were calculated as μg/mL of serum and μg/g of liver.

[5] = rat serum, diet 0.3%, 4 days, read-out: CHOL (total cholesterol), percent of control
[6] = rat serum, diet 0.3%, 4 days, read-out: TRIG (triglycerides), percent of control
[7] = rat liver, diet 0.1%, read-out: Liver Parent = parent compound concentration
[8] = rat liver, diet 0.3%, read-out: Liver Parent = parent compound concentration
[9] = rat serum, diet 0.1%, read-out: Serum Parent = parent compound concentration
[10] = rat serum, diet 0.3%, read-out: Serum Parent = parent compound concentration
[11] = Rattus norvegicus, read-out: CHOL (total cholesterol), percent of control
[12] = Rattus norvegicus, read-out: TRIG (triglycerides), percent of control

Row | SMILES | food (grams eaten per day per rabbit), percent of control [1] [%] | body wt., percent of control [1] [%] | lw/bw (liver weight/body weight), percent of control [1] [%] | response vs control in vivo at 0.3 % [2, 5] [%] | response vs control in vivo at 0.3 % [2, 6] [%] | ALP (alkaline phosphatase), percent of control ([2]; rat serum, diet 0.1%, 4 days) [%] | ALT (alanine aminotransferase), percent of control ([2]; rat serum, diet 0.1%, 4 days) [%] | AST (aspartate aminotransferase), percent of control ([2]; rat serum, diet 0.1%, 4 days) [%] | GLUC (glucose), percent of control ([2]; rat serum, diet 0.1%, 4 days) [%] | ALP (alkaline phosphatase), percent of control ([2]; rat serum, diet 0.3%, 4 days) [%] | ALT (alanine aminotransferase), percent of control ([2]; rat serum, diet 0.3%, 4 days) [%] | AST (aspartate aminotransferase), percent of control ([2]; rat serum, diet 0.3%, 4 days) [%] | GLUC (glucose), percent of control ([2]; rat serum, diet 0.3%, 4 days) [%] | concentration at 96 h [4, 7] [ng/g] | concentration at 96 h [4, 8] [ng/g] | concentration at 96 h [4, 9] [ng/mL] | concentration at 96 h [4, 10] [ng/mL] | response vs control in vivo at 0.3 % [2, 11] [%] | response vs control in vivo at 0.3 % [2, 12] [%] | other results
1 | CN(C)c1ccc([Si](C)(C)COc2cc(C(C)(C)C)c(O)c(C(C)(C)C)c2)cc1 [MDL 104,556, 2,6-Di-t-butyl-4-[(4-N,N-dimethylaminophenyldimethylsilyl)methyloxy]phenol] | 100 | 97 | 96 | 119 | 95 | 112 | 125 | 107 | 102 | 112 | 106 | 101 | 113 | 38700 | 60300 | 9200 | 16300 | – | – | response vs control in vivo at 0.1 % ([2]; rat serum, diet 0.1%, 4 days, read-out: CHOL (total cholesterol), percent of control): 96%; response vs control in vivo at 0.1 % ([2]; rat serum, diet 0.1%, 4 days, read-out: TRIG (triglycerides), percent of control): 74%; CONJ. DIENE (conjugated diene lag phase) [3]: 200 min
2 | CC(C)(C)c1cc(OC[Si](C)(c2ccccc2)c2ccccc2)cc(C(C)(C)C)c1O [MDL 104,599, 2,6-Di-t-butyl-4-[(diphenylmethylsilyl)methloxy]phenol] | 98 | 99 | 86 | 94 | 100 | – | – | – | – | 110 | 91 | 76 | 111 | – | 44900 | – | 28300 | – | – | –
3 | Cc1cc(OC[Si](C)(C)c2ccccc2)c(C)c(C)c1O [MDL 105,314, 2,3,6-Trimethyl-4-[(dimethylphenylsdilyl)methloxy]phenol] | – | – | – | – | – | – | – | – | – | 154 | 113 | 76 | 115 | – | – | – | – | 110 | 78 | Liver Parent = parent compound concentration ([4]; rat liver, diet 0.3%): 0.0 µg/g; Serum Parent = parent compound concentration ([4]; rat serum, diet 0.3%): 0.0 µg/mL
4 | CC(C)(C)c1cc(OC[Si](C)(C)c2ccc(C(F)(F)F)cc2)cc(C(C)(C)C)c1O [MDL 105,975, 2,6-Di-t-butyl-4-[(dimethyl-4-trifluoromethylphenylsilyl)methyloxy]phenol] | 100 | 101 | 108 | – | – | 112 | 96 | 89 | 110 | 105 | 106 | 122 | 106 | 94500 | 186000 | 23800 | 35800 | 122 | 107 | response vs control in vivo at 0.1 % [2, 11]: 98%; response vs control in vivo at 0.1 % [2, 12]: 108%
